# In US20170165286A1, “COMPOSITIONS AND METHODS FOR TREATING DIABETES AND LIVER DISEASES” (Cempra Pharmaceuticals, Inc., priority 2014, published 2017):
# Assays:
# [1] = system: liver mRNA expression levels; assay: STAM model: quantitative RT-PCR of liver; format: in vivo, mice
# Experimental: NASH-HCC (STAM™) Model. C57BL/6 (15-day-pregnant female) mice are obtained from Charles River Laboratories Japan (Kanagawa, Japan). Male pups are selected for the study. NASH is induced in male mice by a single subcutaneous injection of 200 μg streptozotocin (STZ, Sigma-Aldrich, USA) solution 2 days after birth, followed by feeding a HFD (57 kcal % fat, cat#: HFD32, CLEA Japan, Japan) beginning at 4 weeks of age. At 5 weeks of age, mice are divided into a control group and one or more treated group (generally 8 mice per group). Animals are sacrificed at 9 weeks of age, and biochemical, histological, and gene expression analyses are performed.
# During weeks 5-9 (starting at day 35±2), test compound is administered (generally orally) at various doses diluted to 10 mL/kg and according to various dosing protocols to treatment groups (8 mice each) while a second group (8 mice) is administered vehicle only. Animals are sacrificed at 9 weeks.
# Illustrative dose response test groups. Group 1-Normal. Eight normal mice are fed with a normal diet ad libitum without any treatment until 9 weeks of age. Group 2-Vehicle. Eight NASH mice are orally administered vehicle (0.5% w/v methylcellulose+0.2% Tween®80) in a volume of 10 mL/kg twice daily from 5 to 9 week of age. Group 3-solithromycin 5 mg/kg. Eight NASH mice are orally administered vehicle supplemented with solithromycin at a dose of 5 mg/kg in the morning and the vehicle in the evening (5 mg/kg/day) from 5 to 9 weeks of age. Group 4-solithromycin 10 mg/kg. Eight NASH mice are orally administered vehicle supplemented with solithromycin at a dose of 10 mg/kg twice daily (20 mg/kg/day) from 5 to 9 weeks of age. Group 5-solithromycin 25 mg/kg. Eight NASH mice are orally administered vehicle supplemented with solithromycin at a dose of 25 mg/kg twice daily (50 mg/kg/day) from 5 to 9 weeks of age. Group 6-solithromycin 50 mg/kg. Eight NASH mice are orally administered vehicle supplemented with solithromycin at a dose of 50 mg/kg once daily (50 mg/kg/day) from 5 to 9 weeks of age.
# Quantitative RT-PCR. Total RNA is extracted from liver samples using RNAiso (Takara Bio, Japan) according to the manufacturer's instructions. One μg of RNA is reverse-transcribed using a reaction mixture containing 4.4 mM MgCl2 (Roche, Switzerland), 40 U RNase inhibitor (Toyobo, Japan), 0.5 mM dNTP (Promega, USA), 6.28 μM random hexamer (Promega), 5× first strand buffer (Promega), 10 mM dithiothreitol (Invitrogen) and 200 U MMLV-RT (Invitrogen) in a final volume of 20 μL. The reaction is carried out for 1 hour at 37° C., followed by 5 minutes at 99° C. Real-time PCR is performed using real-time PCR DICE and SYBR premix Taq (Takara Bio). To calculate the relative mRNA expression level, the expression of each gene is normalized to that of reference gene 36B4 (gene symbol: Rplp0). PCR-primer sets are described in copending U.S. provisional application No. 62/086,911, the disclosure of which is incorporated herein by reference.
# [2] = Absorption, metabolism and excretion of orally administered solithromycin; format: in vivo; conditions: oral
# Source text: Macrolide antibiotics, like solithromycin, are primarily metabolized and excreted through liver-dependent mechanisms; this study evaluated the safety and PK of solithromycin in patients with chronic liver disease. It has been observed that approximately 78% of orally administered solithromycin is absorbed. Less than 15% unchanged solithromycin is excreted in the feces. It has also been observed that ˜70% of orally administered solithromycin is metabolized and excreted by the liver. Accordingly, high liver concentrations are observed. No dosage adjustment is needed when administering solithromycin to patients with mild, moderate, or severe hepatic impairment.
# [3] = STAM mice liver, 5 mg/kg, listed as SOLI
# [4] = STAM mice liver, 10 mg/kg, listed as SOLI
# [5] = STAM mice liver, 25 mg/kg, listed as SOLI
smiles,measurement,setting,value
CC[C@H]1OC(=O)[C@@](C)(F)C(=O)[C@H](C)[C@@H](O[C@@H]2O[C@H](C)C[C@H](N(C)C)[C@H]2O)[C@](C)(OC)C[C@@H](C)C(=O)[C@H](C)[C@H]2N(CCCCn3cc(-c4cccc(N)c4)nn3)C(=O)O[C@]12C [solithromycin],Col1a2/36B4 relative mRNA expression,"[1]; STAM mice liver, 5 mg/kg",3.6 ± 1.7
same,FBPase/36B4 relative mRNA expression,"[1]; STAM mice liver, 5 mg/kg",1.2 ± 0.2
same,G6pc/36B4 relative mRNA expression,"[1]; STAM mice liver, 5 mg/kg",3.0 ± 0.7
same,Gck/36B4 relative mRNA expression,"[1]; STAM mice liver, 5 mg/kg",0.5 ± 0.2
same,Glut 2/36B4 relative mRNA expression,"[1]; STAM mice liver, 5 mg/kg",0.8 ± 0.1
same,MCP-1/36B4 relative mRNA expression,"[1]; STAM mice liver, 5 mg/kg",no statistically significant differences
same,MMP-9/36B4 relative mRNA expression,"[1]; STAM mice liver, 5 mg/kg",no statistically significant differences
same,Pck1/36B4 relative mRNA expression,"[1]; STAM mice liver, 5 mg/kg",1.5 ± 0.1
same,TGF-β/36B4 relative mRNA expression,"[1]; STAM mice liver, 5 mg/kg",2.1 ± 0.4
same,TNF-α/36B4 relative mRNA expression,"[1]; STAM mice liver, 5 mg/kg",3.1 ± 1.2
same,Timp-1/36B4 relative mRNA expression,"[1]; STAM mice liver, 5 mg/kg",16.0 ± 15.7
same,α-SMA/36B4 relative mRNA expression,"[1]; STAM mice liver, 5 mg/kg",3.8 ± 1.9
same,MCP-1/36B4 relative mRNA expression,[1]; [3],7.2 ± 4.0
same,MMP-9/36B4 relative mRNA expression,[1]; [3],2.9 ± 0.8
same,Col1a2/36B4 relative mRNA expression,"[1]; STAM mice liver, 10 mg/kg",2.8 ± 1.0
same,FBPase/36B4 relative mRNA expression,"[1]; STAM mice liver, 10 mg/kg",1.2 ± 0.2
same,G6pc/36B4 relative mRNA expression,"[1]; STAM mice liver, 10 mg/kg",2.4 ± 0.5
same,Gck/36B4 relative mRNA expression,"[1]; STAM mice liver, 10 mg/kg",0.4 ± 0.2
same,Glut 2/36B4 relative mRNA expression,"[1]; STAM mice liver, 10 mg/kg",tended to down-regulated
same,MCP-1/36B4 relative mRNA expression,"[1]; STAM mice liver, 10 mg/kg",no statistically significant differences
same,MMP-9/36B4 relative mRNA expression,"[1]; STAM mice liver, 10 mg/kg",no statistically significant differences
same,Pck1/36B4 relative mRNA expression,"[1]; STAM mice liver, 10 mg/kg",1.5 ± 0.4
same,TGF-β/36B4 relative mRNA expression,"[1]; STAM mice liver, 10 mg/kg",1.8 ± 0.4
same,TNF-α/36B4 relative mRNA expression,"[1]; STAM mice liver, 10 mg/kg",3.0 ± 0.7
same,Timp-1/36B4 relative mRNA expression,"[1]; STAM mice liver, 10 mg/kg",11.9 ± 6.8
same,α-SMA/36B4 relative mRNA expression,"[1]; STAM mice liver, 10 mg/kg",3.7 ± 1.0
same,Glut 2/36B4 relative mRNA expression,[1]; [4],0.8 ± 0.1
same,MCP-1/36B4 relative mRNA expression,[1]; [4],5.2 ± 1.9
same,MMP-9/36B4 relative mRNA expression,[1]; [4],3.0 ± 1.1
same,Col1a2/36B4 relative mRNA expression,"[1]; STAM mice liver, 25 mg/kg",2.9 ± 1.2
same,FBPase/36B4 relative mRNA expression,"[1]; STAM mice liver, 25 mg/kg",Statistically significant reduced
same,G6pc/36B4 relative mRNA expression,"[1]; STAM mice liver, 25 mg/kg",Statistically significant reduced
same,Gck/36B4 relative mRNA expression,"[1]; STAM mice liver, 25 mg/kg",0.6 ± 0.4
same,Glut 2/36B4 relative mRNA expression,"[1]; STAM mice liver, 25 mg/kg",0.9 ± 0.1
same,MCP-1/36B4 relative mRNA expression,"[1]; STAM mice liver, 25 mg/kg",no statistically significant differences
same,MMP-9/36B4 relative mRNA expression,"[1]; STAM mice liver, 25 mg/kg",no statistically significant differences
same,Pck1/36B4 relative mRNA expression,"[1]; STAM mice liver, 25 mg/kg",1.3 ± 0.6
same,TGF-β/36B4 relative mRNA expression,"[1]; STAM mice liver, 25 mg/kg",1.8 ± 0.5
same,TNF-α/36B4 relative mRNA expression,"[1]; STAM mice liver, 25 mg/kg",3.4 ± 1.3
same,Timp-1/36B4 relative mRNA expression,"[1]; STAM mice liver, 25 mg/kg",11.0 ± 8.6
same,α-SMA/36B4 relative mRNA expression,"[1]; STAM mice liver, 25 mg/kg",3.3 ± 1.2
same,FBPase/36B4 relative mRNA expression,[1]; [5],1.0 ± 0.2
same,G6pc/36B4 relative mRNA expression,[1]; [5],1.9 ± 0.7
same,MCP-1/36B4 relative mRNA expression,[1]; [5],4.9 ± 1.9
same,MMP-9/36B4 relative mRNA expression,[1]; [5],2.6 ± 0.5
same,FBPase mRNA expression levels compared to vehicle group,"[1]; STAM mice liver, all doses",significantly down-regulated
same,G6pc mRNA expression levels compared to vehicle group,"[1]; STAM mice liver, all doses",significantly down-regulated
same,Collagen Type 1 mRNA expression levels compared to vehicle group,"[1]; STAM mice liver, any doses",no significant differences
same,Gck mRNA expression levels compared to vehicle group,"[1]; STAM mice liver, any doses",no significant differences
same,Pck1 mRNA expression levels compared to vehicle group,"[1]; STAM mice liver, any doses",no significant differences
same,TGF-β mRNA expression levels compared to vehicle group,"[1]; STAM mice liver, any doses",no significant differences
same,TIMP-1 mRNA expression levels compared to vehicle group,"[1]; STAM mice liver, any doses",no significant differences
same,TNF-α mRNA expression levels compared to vehicle group,"[1]; STAM mice liver, any doses",no significant differences
same,α-SMA mRNA expression levels compared to vehicle group,"[1]; STAM mice liver, any doses",no significant differences
same,Glut 2 mRNA expression levels compared to vehicle group,"[1]; STAM mice liver, solithromycin groups other than 10 mg/kg",no significant differences
same,MMP-9 mRNA expression levels in the liver,"[1]; STAM mice, 50 mg/kg q.d., normalized vehicle 1.00±0.34",0.59±0.25
same,MCP-1 mRNA expression levels in the liver,"[1]; STAM mice, 50 mg/kg q.d., normalized vehicle 1.00±0.42",0.64±0.14
same,Fraction of orally administered dose absorbed,[2],approximately 78%
same,Fraction of orally administered dose metabolized and excreted by the liver,[2],~70%
same,Unchanged drug excreted in the feces,[2],Less than 15%
